Reference: patent US20120245229A1, “METHOD FOR TREATING NEUROPATHIC PAIN” (priority 2009, published 2012)

Experiments:
[1] = tested on: carrageenan (CRG)-elicited heat hyperalgesia; experiment: Carrageenan (CRG)-elicited heat hyperalgesia; type: in vivo, mice; conditions: intraplantar pretreatment, 20 ng, 10 min before carrageenan
Experimental: Animals and pain models. Adult CD1 mice (male, 25-32 g) were used for most experiments. Knockout mice were used lacking TNFR1/II (Tnfrsf1a/1b^−/−) and TRPV1 (Trpv1^−/−) and C57BL/6 wild-type control mice, all from Jackson, for some experiments. All animal procedures performed in this study were approved by the Harvard Medical Area Standing Committee on Animals. 20 μl of diluted formalin (5%), carrageenan (CRG, 1%), or complete Freund's adjuvant (CFA) were injected into the plantar surface of a hindpaw to produce acute, persistent, or chronic inflammatory pain, respectively. Postoperative pain was also produced through hindpaw incision^36 and neuropathic pain by ligation of the spinal nerve^37.
(§1) Behavioral analysis. Mice were habituated in the testing environment for two days and performed behavioral testing in a blinded manner. Formalin-evoked spontaneous inflammatory pain was assessed by measuring duration (seconds) animals spent on licking/flinching the affected paws every 5 min for 45 min. Capsaicin-induced spontaneous pain was aslo assessed for 10 min. For testing mechanical sensitivity, mice were put in boxes on an elevated metal mesh floor and stimulated hindpaw with a series of von Frey hairs with logarithmically incrementing stiffness (0.02-2.56 grams, Stoelting), presented perpendicular to the plantar surface. It was determined the 50% paw withdrawal threshold using Dixon's up-down method^40. For testing heat sensitivity, mice were placed in plastic boxes and tested heat sensitivity using Hargreaves radiant heat apparatus (IITC Life Science Inc.). The basal paw withdrawal latency was adjusted to 9-12 seconds and set a cut-off of 20 seconds to prevent tissue damage. The percent maximal possible antinociceptive effect (% M.P.E) was calculated using the equation % M.P.E.=[(PL−BL2)/(BL1−BL2)]×100. BL1, baseline latency before inflammation; BL2, baseline latency after inflammation but before drug injection; PL, latency post drug injection.
Resolvins were also used for intraplantar injection. […]

[2] = tested on: intrathecal TNF-α-induced hypersensitivity; experiment: Intrathecal TNF-α-induced heat hyperalgesia and mechanical allodynia; type: in vivo, mice
Experimental: as §1, with “The percent maximal possible antinociceptive effect (% M.P.E) was calculated using the equation % M.P.E.=[(PL−BL2)/(BL1−BL2)]×100.” left out, “injection. Intrathecal injection: […] To examine whether pretreatment of RvE1 attenuates capsaicin-induced acute spontaneous pain, RvE1 and capsaicin were mixed and injected at the same time (FIG. 3f).” for “injection.”

[3] = tested on: glutamate NMDA receptors (NMDARs); experiment: NMDA-induced currents in dorsal horn (lamina II) neurons of spinal cord slices; type: cell-based, mice; conditions: NMDA 50 μM; TNF-α 10 ng/ml; PD98059 1 μM, U0126 1 μM, capsazepine 10 μM
Experimental: Spinal cord slice preparation. As previously reported^39, a portion of the lumbar spinal cord (L4-L5) was removed from young mice (3-4 week old) under urethane anesthesia (1.5-2.0 g/kg, i.p.) and transverse spinal cord slices were cut (600 μm) on a vibrating microslicer. The slices were perfused with Kreb's solution (8 ml/min) for >2 h prior to experiments. Some slices were stimulated with TNF-α (10 ng/ml, 5 min), the slices were fixed with 4% paraformaldehyde for 1 h, and processed pERK immunohistochemistry using thin sections (15 μm)^13.
Patch clamp recordings in spinal slices. Whole cell patch-clamp recordings were performed in lamina II neurons in voltage clamp mode^39. After establishing the whole-cell configuration, neurons were held at the holding potentials of −70 mV for recording spontaneous excitatory postsynaptic current (sEPSC). NMDA-induced currents were recorded by bath application of NMDA (50 μM, Sigma) at the holding potential of −50 mV. Membrane currents were amplified with an Axopatch 200A amplifier (Axon Instruments) in voltage-clamp mode. pCLAMP 6 was used and Mini Analysis (Synaptosoft Inc.) software to store and analyze the data. Those cells showing >5% changes from the baseline levels were reagrded as responding ones^24.
Resolvins were also used for intraplantar injection. RvD1 or RvE1 was injected into the plantar surface of a hindapaw [20 ng, 20 μl , in 1% ethanol (Supplementary FIG. 5a, 5b) or in 10% ethanol (FIG. 2e, Supplementary FIG. 1d)]. DRG cultures were incubated with RvE1 (10 ng/ml, 0.1% ethanol in culture medium) and perfused spinal cord slices with RvE1 (1 ng/ml, in 0.01% ethanol and Kreb's solution).
Perfusion of spinal cord slices: Spinal cord slices were incubated with chemerin (100 ng/ml, in Kreb's solution), TNF-α (10 ng/ml, in Kreb's solution), capsaicin (100 nM, in 0.01% DMSO and Kreb's solution), TRPV1 antagonist capsazepine (Sigma, 10 μM, in 0.01% DMSO and Kreb's solution), pertussix toxin (0.5 μg/ml, in Kreb's solution), and MEK inhibitor PD98059 and U0126 (CalBiochem, 1 μM, in 0.01% DMSO and Kreb's solution). For pertussix toxin treatment, spinal cord slices were incubated with the toxin for 3 h before stimulation.

With CC[C@@H](O)/C=C/C=C\C[C@@H](O)/C=C/C=C/C=C\[C@@H](O)CCCC(=O)O [RvE1, 5S,12R,18R-trihydroxyeicosapentaenoic acid] the CRG-evoked heat hyperalgesia [1] was “substantially attenuated”, the “mechanical allodynia induced by TNF-α” value ([2]; intrathecal RvE1 pretreatment) was “attenuated” and the TNF-α-induced heat hyperalgesia ([2]; spinal (intrathecal) RvE1 mixed with TNF-α 20 ng) was “substantially reduced”. For the same compound, the “TNF-α-induced potentiation of NMDA currents (NMDAR activation)” value [3] was “blocked this potentiation”.
